Reference: ChEMBL document CHEMBL1201862, “PubChem BioAssay data set” (2004)
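A five-concentration, 48-hour dose response in 96-well plates underlies each endpoint, interpolated linearly between surrounding concentrations. At the GI50, growth is halved.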 The source made the active and inactive calls. Rule as the data show it: active = GI50 up to about 1.1 µM and inactive = higher.

Columns and labels:
Test in all cases: inhibition of tumour cell growth, NCI panel, 48 h
[1] = tested on: NCI-H460
[2] = tested on: RXF 393
[3] = tested on: HCC 2998
[4] = tested on: M14
[5] = tested on: T47D
[6] = tested on: UACC-62
[7] = tested on: Malme-3M
[8] = tested on: PC-3
[9] = tested on: HT-29
[10] = tested on: HL-60
[11] = tested on: IGROV-1
[12] = tested on: UACC-257
[13] = tested on: SK-OV-3
[14] = tested on: U-251
[15] = tested on: A549
[16] = tested on: OVCAR-8
[17] = tested on: A498
[18] = tested on: UO-31
[19] = tested on: MCF7
[20] = tested on: OVCAR-5
[21] = tested on: HCT-116
[22] = tested on: SK-MEL-28
[23] = tested on: SF-295
[24] = tested on: HCT-15
[25] = tested on: SK-MEL-2
[26] = tested on: SW-620
[27] = tested on: OVCAR-3
[28] = tested on: SK-MEL-5
[29] = tested on: HOP-92
[30] = tested on: CCRF-CEM
[31] = tested on: NCI-H522
[32] = tested on: COLO 205
[33] = tested on: Hs-578T
[34] = tested on: SR
[35] = tested on: SF-268
[36] = tested on: 786-0
[37] = tested on: BT-549
[38] = tested on: NCI/ADR-RES
[39] = tested on: KM12
[40] = tested on: DU-145
[41] = tested on: SNB-19
[42] = tested on: SNB-75
[43] = tested on: TK-10
[44] = tested on: MDA-N
[45] = tested on: NCI-H226
[46] = tested on: NCI-H23
[47] = tested on: RPMI-8226
[48] = tested on: ACHN
[49] = tested on: MDA-MB-435
[50] = tested on: OVCAR-4
[51] = tested on: LOX IMVI
[52] = tested on: K562
[53] = tested on: SN12C
[54] = tested on: EKVX
[55] = tested on: MDA-MB-231
[56] = tested on: SF-539
[57] = tested on: HOP-62
[58] = tested on: CAKI-1
[59] = tested on: MOLT-4

How did the GI50 [1] turn out when `O=C1N[C@@H](c2c[nH]c3cc(Br)ccc23)C(=O)N[C@H]1c1c[nH]c2cc(Br)ccc12` was run?
The GI50 was > 100 µM (inactive).

What about the GI50 [2] of the same compound?
The GI50 was > 100 µM (inactive).

And the GI50 [3]?
Its GI50 is > 100 µM (inactive).

What about the GI50 [4] of the same compound?
Its GI50 is > 100 µM (inactive).

And the GI50 [5]?
The GI50 was > 100 µM (inactive).

And the GI50 [6]?
The GI50 was > 100 µM (inactive).

What about the GI50 [7] of the same compound?
Its GI50 is > 100 µM (inactive).

What about the GI50 [8] of the same compound?
Its GI50 is > 100 µM (inactive).

What about the GI50 [9] of the same compound?
Its GI50 is > 100 µM (inactive).

And the GI50 [10]?
The GI50 was > 100 µM (inactive).

And the GI50 [11]?
The GI50 was > 100 µM (inactive).

What about the GI50 [12] of the same compound?
The GI50 was > 100 µM (inactive).

And the GI50 [13]?
The GI50 was 35.4 µM (inactive).

What about the GI50 [14] of the same compound?
Its GI50 is 25.8 µM (inactive).

What about the GI50 [15] of the same compound?
The GI50 was > 100 µM (inactive).

And the GI50 [16]?
The GI50 was 29.9 µM (inactive).

And the GI50 [17]?
The GI50 was > 100 µM (inactive).

And the GI50 [18]?
Its GI50 is > 100 µM (inactive).

What about the GI50 [19] of the same compound?
Its GI50 is > 100 µM (inactive).

What about the GI50 [20] of the same compound?
The GI50 was > 100 µM (inactive).

What about the GI50 [21] of the same compound?
The GI50 was > 100 µM (inactive).

What about the GI50 [22] of the same compound?
Its GI50 is > 100 µM (inactive).

And the GI50 [23]?
Its GI50 is > 100 µM (inactive).

What about the GI50 [24] of the same compound?
Its GI50 is > 100 µM.

What about the GI50 [25] of the same compound?
The GI50 was > 100 µM (inactive).

And the GI50 [26]?
Its GI50 is > 100 µM (inactive).

And the GI50 [27]?
Its GI50 is > 100 µM (inactive).

What about the GI50 [28] of the same compound?
The GI50 was > 100 µM (inactive).

What about the GI50 [29] of the same compound?
Its GI50 is 40.6 µM (inactive).

What about the GI50 [30] of the same compound?
The GI50 was > 100 µM (inactive).

And the GI50 [31]?
Its GI50 is > 100 µM (inactive).

And the GI50 [32]?
The GI50 was > 100 µM (inactive).

And the GI50 [33]?
The GI50 was > 100 µM (inactive).

And the GI50 [34]?
Its GI50 is > 100 µM (inactive).

And the GI50 [35]?
Its GI50 is 47.4 µM (inactive).

What about the GI50 [36] of the same compound?
Its GI50 is > 100 µM (inactive).

What about the GI50 [37] of the same compound?
The GI50 was > 100 µM (inactive).

And the GI50 [38]?
The GI50 was > 100 µM (inactive).

What about the GI50 [39] of the same compound?
The GI50 was 83.9 µM (inactive).

And the GI50 [40]?
The GI50 was > 100 µM (inactive).

And the GI50 [41]?
Its GI50 is > 100 µM (inactive).

What about the GI50 [42] of the same compound?
The GI50 was 9.4 µM (inactive).

And the GI50 [43]?
Its GI50 is > 100 µM (inactive).

And the GI50 [44]?
Its GI50 is > 100 µM (inactive).

And the GI50 [45]?
The GI50 was > 100 µM (inactive).

What about the GI50 [46] of the same compound?
The GI50 was > 100 µM (inactive).

And the GI50 [47]?
Its GI50 is > 100 µM (inactive).

What about the GI50 [48] of the same compound?
Its GI50 is > 100 µM (inactive).

And the GI50 [49]?
The GI50 was > 100 µM (inactive).

And the GI50 [50]?
Its GI50 is > 100 µM (inactive).

What about the GI50 [51] of the same compound?
Its GI50 is > 100 µM (inactive).

And the GI50 [52]?
Its GI50 is > 100 µM (inactive).

What about the GI50 [53] of the same compound?
The GI50 was > 100 µM (inactive).

What about the GI50 [54] of the same compound?
The GI50 was > 100 µM (inactive).

And the GI50 [55]?
The GI50 was 17.1 µM (inactive).

And the GI50 [56]?
The GI50 was 79.8 µM (inactive).

And the GI50 [57]?
The GI50 was > 100 µM (inactive).

How did the GI50 [1] turn out when `CCCCCCNC(=O)c1cc(CCc2cc(O)ccc2O)ccc1O` was run?
The GI50 was 8.57 µM (inactive).

What about the GI50 [2] of the same compound?
Its GI50 is 1.8 µM (inactive).

What about the GI50 [3] of the same compound?
Its GI50 is 3.15 µM (inactive).

And the GI50 [4]?
Its GI50 is 6.05 µM (inactive).

What about the GI50 [5] of the same compound?
Its GI50 is 1.85 µM (inactive).

And the GI50 [58]?
Its GI50 is 3.32 µM (inactive).

And the GI50 [7]?
Its GI50 is 2.35 µM (inactive).

What about the GI50 [8] of the same compound?
The GI50 was 2.18 µM (inactive).

And the GI50 [9]?
The GI50 was 20.1 µM (inactive).

What about the GI50 [10] of the same compound?
Its GI50 is 0.723 µM (active).

What about the GI50 [11] of the same compound?
The GI50 was 2.1 µM (inactive).

And the GI50 [12]?
The GI50 was 2.2 µM (inactive).

What about the GI50 [13] of the same compound?
The GI50 was 9.95 µM (inactive).

And the GI50 [59]?
Its GI50 is 1.93 µM (inactive).

What about the GI50 [14] of the same compound?
The GI50 was 2.3 µM (inactive).

And the GI50 [15]?
The GI50 was 7.83 µM (inactive).

What about the GI50 [16] of the same compound?
Its GI50 is 3.56 µM (inactive).

And the GI50 [17]?
The GI50 was 4.24 µM (inactive).

And the GI50 [18]?
The GI50 was 1.55 µM (inactive).

What about the GI50 [19] of the same compound?
Its GI50 is 3.25 µM (inactive).

What about the GI50 [20] of the same compound?
The GI50 was 7.05 µM (inactive).

And the GI50 [22]?
Its GI50 is 2.74 µM (inactive).

What about the GI50 [23] of the same compound?
The GI50 was 14.1 µM (inactive).

And the GI50 [24]?
The GI50 was 2.48 µM.

What about the GI50 [25] of the same compound?
The GI50 was 2.74 µM (inactive).

And the GI50 [26]?
The GI50 was 7.66 µM (inactive).

What about the GI50 [27] of the same compound?
The GI50 was 2.3 µM (inactive).

What about the GI50 [28] of the same compound?
The GI50 was 4.62 µM (inactive).

What about the GI50 [29] of the same compound?
Its GI50 is 1.72 µM (inactive).

What about the GI50 [30] of the same compound?
The GI50 was 1.92 µM (inactive).

And the GI50 [31]?
The GI50 was 0.916 µM (active).

And the GI50 [32]?
The GI50 was 10.9 µM (inactive).

What about the GI50 [33] of the same compound?
The GI50 was 3.59 µM (inactive).

And the GI50 [34]?
Its GI50 is 2.23 µM (inactive).

What about the GI50 [35] of the same compound?
The GI50 was 2.77 µM (inactive).

What about the GI50 [36] of the same compound?
Its GI50 is 2.04 µM (inactive).

What about the GI50 [37] of the same compound?
The GI50 was 1.94 µM (inactive).

What about the GI50 [38] of the same compound?
The GI50 was 3.61 µM (inactive).

And the GI50 [39]?
Its GI50 is 4.46 µM (inactive).

What about the GI50 [40] of the same compound?
The GI50 was 6.78 µM (inactive).

And the GI50 [41]?
The GI50 was 10.7 µM (inactive).

And the GI50 [42]?
Its GI50 is 4.93 µM (inactive).

What about the GI50 [43] of the same compound?
The GI50 was 2.96 µM (inactive).

And the GI50 [44]?
Its GI50 is 2.66 µM (inactive).

And the GI50 [45]?
Its GI50 is 4.23 µM (inactive).

What about the GI50 [46] of the same compound?
The GI50 was 7.89 µM (inactive).

What about the GI50 [47] of the same compound?
Its GI50 is 1.11 µM (active).

What about the GI50 [48] of the same compound?
The GI50 was 2.66 µM (inactive).

And the GI50 [49]?
Its GI50 is 3.61 µM (inactive).

And the GI50 [50]?
The GI50 was 2.47 µM (inactive).

What about the GI50 [51] of the same compound?
The GI50 was 4.67 µM (inactive).

What about the GI50 [52] of the same compound?
The GI50 was 2.38 µM (inactive).

And the GI50 [54]?
The GI50 was 5.75 µM (inactive).

What about the GI50 [55] of the same compound?
Its GI50 is 2.25 µM (inactive).

What about the GI50 [57] of the same compound?
Its GI50 is 6.24 µM (inactive).
